One assay concerns SiHa. As to the kind of experiment: CCK-8 cell growth inhibition, SiHa. It is filed as cell-based, human. To be noted: CCK-8 assay, 72-h incubation; read-out: Cell Lines IC50 SiHa. The protocol: (§1) In vitro anticancer screening of all newly synthesized compounds towards human solid tumor cells, cervical (SiHa) and ovarian (SKOV3) cancer cell lines, was carried out by standard CCK-8 assay with cisplatin as the positive control, as cisplatin is one of the most used chemotherapy drugs. […] The compound was further evaluated in a dose response study against a panel of solid tumor cells, including cervical cancer cell lines (SiHa and HeLa), ovarian cancer cell lines (SKOV3 and OVCAR-5), breast cancer cell lines (4T1 and MCF-7), lung cancer cell lines (A549 and H460) to test cytotoxic activity. The IC50 values were summarized in Table 2, including the cytotoxic activity of the cisplatin used as reference compound.
(§2) The viability of cells as determined using the CCK8 assay method. Cells were seeded (2000–3000 cells per well) in 96-well plates. After incubation for 24 h in serum-containing media, the cells were treated with drugs at different concentrations diluted with culture medium for 72 h at 37 °C with a 5% CO2 atmosphere. Then, 10 μL CCK8 regent (Promega, WI) was added to each well, and the plates were incubated for 1–4 h at 37 °C. Finally, absorbance values of test wells (AS), control wells (AC) and blank wells (Ab) at 450 nm were read using the Microplate Reader (Promega, WI). Inhibition ratios were calculated as follows: [(AC − AS)/ (AC−Ab)] × 100%. IC50 values were calculated using GraphPad software.

The subject of the next assay is SKOV3. As to the kind of experiment: CCK-8 cell growth inhibition, SKOV3. To be noted: CCK-8 assay, 72-h incubation; read-out: Cell Lines IC50 SKOV3. It is filed as cell-based, human. On the procedure: as §1, §2
A further assay concerns OVCAR-5. As to the kind of experiment: CCK-8 cell growth inhibition, OVCAR-5. It is filed as cell-based, human. The settings on record: ovarian cancer; CCK-8 assay, 72-h incubation. The protocol: as §1
(§3) The viability of cells as determined using the CCK8 assay method. Cells were seeded (2000–3000 cells per well) in 96-well plates. After incubation for 24 h in serum-containing media, the cells were treated with drugs at different concentrations diluted with culture medium for 72 h at 37 °C with a 5% CO2 atmosphere. […] Finally, absorbance values of test wells (AS), control wells (AC) and blank wells (Ab) at 450 nm were read using the Microplate Reader (Promega, WI). Inhibition ratios were calculated as follows: [(AC − AS)/ (AC−Ab)] × 100%. IC50 values were calculated using GraphPad software.

The test system of a further assay is A549. As to the kind of experiment: CCK-8 cell growth inhibition, A549. Type of assay: cell-based, human. The settings on record: lung cancer; CCK-8 assay, 72-h incubation. The protocol:
as §1, §3

For the next assay, the system named is 4T1. As to the kind of experiment: CCK-8 cell growth inhibition, 4T1. Type of assay: cell-based. The settings on record: breast cancer; CCK-8 assay, 72-h incubation. The protocol:
as §1, §3

The test system of another assay is MCF-7. As to the kind of experiment: CCK-8 cell growth inhibition, MCF-7. Type of assay: cell-based, human. The settings on record: breast cancer; CCK-8 assay, 72-h incubation. On the procedure: as §1, §3
In another assay the test system is SiHa xenograft. As to the kind of experiment: SiHa xenograft mouse model, oral dosing. Type of assay: in vivo. To be noted: SiHa xenograft mice, 20 mg/kg oral, every day. On the procedure: Based on a desirable set of in vitro properties, 12O was finally selected for further in vivo evaluation. We proceeded to test the antitumor efficacy of 12O in SiHa xenograft mice. Animals were orally given three doses (5, 10, and 20 mg Kg^−1) of 12O, one dose (20 mg Kg^−1) of cisplatin (positive control), or vehicle (control) every day. […] Of note, In Figure 5c, an obvious decrease in tumor size was also observed at the end of observation. The average tumor weight (Figure 5d) of the 12O-treated group was less than that of cisplatin. HE staining was further performed to identify the efficacy of 12O (Figure 5e). […] Additional kinase activities of 12O intimately associated with the growth, survival, and metastasis in tumor cells, may contribute to the antitumor activity, but may also cause side effects. Multi-target kinase inhibitor extensively used in clinic cancer therapy, while hampered by associated adverse reactions and side-effect. Thus, further evidence is needed. An in-depth study of compound 12O is ongoing in our laboratory and will be reported in due course.
All animal studies were conducted under the approval of the Experimental Animal Management Committee of Nankai University (No. NKUEC20190228). Six- to eight-week-old female BALB/c nude mice were purchased from Beijing HFK Bioscience Company. Mice were fed in an SPF-level laboratory animal room. The mice were kept in independent ventilation cages with autoclaved corncobs at the bottom of the cage as bedding. The dimensions of the cages were 390 × 180 × 180 mm. Environmental factors: Average air temperature ranged from 20 to 26 °C with average relative air humidity ranging from 40 to 70%. Noise was below 60 decibels. Ventilation times were more than 15 times/hour. Air velocity was 0.1~0.2m/s. The ammonia concentration was below 14/(mg/m³). Working illumination was 150~300LX and animal illumination was 15~20LX. The nutritional components of mouse food include: water content: ≤10%, crude protein: ≥18%, crude fat: ≥4%, crude fiber: ≥5%, minerals: ≥4%, calcium: 1.0–1.8%, Phosphorus: 0.6-1.2%. The water that mice drink is sterilized by the animal drinking system.
Cells SiHa were harvested during the exponential-growth phase, washed 3 times with serum-free medium, followed by resuspension at a concentration of 2 × 10^6 per mL. A total of 100 μL of cell suspension was injected into SCID mice subcutaneously. After the tumors had grown to 100−150 mm^3, all the mice were randomized into 5 groups (5 mice for each group, 25 mice total). The mice were treated daily via oral gavage administration with 12O (5, 10, or 20 mg kg^−1 d^−1), cisplatin (20 mg kg^−1 d^−1), or vehicle. […] Mice were monitored for side effects every day. Body weights and tumor sizes were determined every other day and volume was also observed. At the end-point of the study, all mice had survived. Mice were euthanized and the subcutaneous tumor tissues were stripped and collected. Tumor measurements were calculated using a digital vernier caliper, and the volumes were determined using the following calculation: (short^2) × long × 0.5. Inhibition rate of tumor growth was calculated using the following formula: 100 × {1 − [(tumor volume final-tumor volume initial) for 12O-treated group]/ [(tumor volume final-tumor volume initial) for the vehicle-treated group]} [23].

A further assay relates to HeLa. Kind of assay: CCK-8 cell growth inhibition, HeLa. Type of assay: cell-based, human. To be noted: cervical cancer; CCK-8 assay, 72-h incubation. On the procedure: as §1, §3
The subject of the next assay is H460. As to the kind of experiment: CCK-8 cell growth inhibition, H460. Type of assay: cell-based, human. The settings on record: lung cancer; CCK-8 assay, 72-h incubation. The protocol: as §1, §3

Results on 16 compounds are retold here after paper PMC7664879, “Discovery of 12O—A Novel Oral Multi-Kinase Inhibitor for the Treatment of Solid Tumor” (Molecules, 2020).

Turning to “N-(4-bromophenyl)-N-(4-((5-fluoro-4-(1-isopropyl-1H-benzo[d](1,2,3)triazol-6-yl)pyrimidin-2-yl)amino)benzyl)cyclopropane-1,1-dicarboxamide [12F]”, the IC50 in the assay with SiHa was 128 nM; in the assay with SKOV3, 706 nM.
Consider “N-(4-chlorophenyl)-N-(4-((5-fluoro-4-(1-isopropyl-1H-benzo[d](1,2,3)triazol-6-yl)pyrimidin-2-yl)amino)benzyl)cyclopropane-1,1-dicarboxamide [12D]”, for which the IC50 was determined as 63 nM in the assay on SiHa and 793 nM in the assay on SKOV3.
For “N-(4-((5-fluoro-4-(1-isopropyl-1H-benzo[d](1,2,3)triazol-6-yl)pyrimidin-2-yl)amino)benzyl)-N-(3-fluorophenyl)cyclopropane-1,1-dicarboxamide [12A]” the same measures were 35 nM and 531 nM.
For “N-(4-cyanophenyl)-N-(4-((5-fluoro-4-(1-isopropyl-1H-benzo[d](1,2,3)triazol-6-yl)pyrimidin-2-yl)amino)benzyl)cyclopropane-1,1-dicarboxamide [12L]” the same measures were 63 nM and 101 nM.
For “N-(4-((5-fluoro-4-(1-isopropyl-1H-benzo[d](1,2,3)triazol-6-yl)pyrimidin-2-yl)amino)benzyl)-N-(m-tolyl)cyclopropane-1,1-dicarboxamide [12I]” the same measures were 42 nM and 165 nM.
Turning to “N-(4-((5-fluoro-4-(1-isopropyl-1H-benzo[d](1,2,3)triazol-6-yl)pyrimidin-2-yl)amino)benzyl)-N-(4-methoxyphenyl)cyclopropane-1,1-dicarboxamide [12H]”, the IC50 turned out to be 80 nM in the assay on SiHa and 312 nM with SKOV3.
With “N-(3-cyanophenyl)-N-(4-((5-fluoro-4-(1-isopropyl-1H-benzo[d](1,2,3)triazol-6-yl)pyrimidin-2-yl)amino)benzyl)cyclopropane-1,1-dicarboxamide [12K]”, the IC50 turned out to be 83 nM with SiHa and 108 nM in the assay on SKOV3.
Consider `N.N.[Cl][Pt][Cl]` [Cisplatin, cisplatin, reference compound], for which the IC50 with OVCAR-5 was 1240 nM; with A549, 8280 nM; with 4T1, 4260 nM; in the assay with SiHa, 4910 nM; in the assay on SKOV3, 5360 nM; in the assay on MCF-7, 7160 nM. The IC50 in the assay on HeLa was 5810 nM; in the assay on H460 it was more than 10000 nM. In the assay on SiHa xenograft, the “Tumor growth inhibition (TGI)” value worked out at 31.14%.
For the compound “N-(4-((5-fluoro-4-(1-isopropyl-1H-benzo[d](1,2,3)triazol-6-yl)pyrimidin-2-yl)amino)benzyl)-N-(4-(trifluoromethyl)phenyl)cyclopropane-1,1-dicarboxamide [12N]”, the IC50 was 160 nM in the assay on SiHa and 427 nM in the assay on SKOV3.
Take “N-(4-((5-fluoro-4-(1-isopropyl-1H-benzo[d](1,2,3)triazol-6-yl)pyrimidin-2-yl)amino)benzyl)-N-(3-(trifluoromethyl)phenyl)cyclopropane-1,1-dicarboxamide [12M]”: the 50% inhibitory concentration (IC50) in the assay on SiHa amounted to 177 nM; in the assay with SKOV3 it was 498 nM.
For “N-(4-((5-fluoro-4-(1-isopropyl-1H-benzo[d](1,2,3)triazol-6-yl)pyrimidin-2-yl)amino)benzyl)-N-(p-tolyl)cyclopropane-1,1-dicarboxamide [12J]”, the results for the IC50 in the assay with SiHa and with SKOV3 were 74 nM and 137 nM, respectively.
For “N-(3-bromophenyl)-N-(4-((5-fluoro-4-(1-isopropyl-1H-benzo[d](1,2,3)triazol-6-yl)pyrimidin-2-yl)amino)benzyl)cyclopropane-1,1-dicarboxamide [12E]” the same measures were 66 nM and 778 nM.
For “N-(4-((5-fluoro-4-(1-isopropyl-1H-benzo[d](1,2,3)triazol-6-yl)pyrimidin-2-yl)amino)benzyl)-N-(3-methoxyphenyl)cyclopropane-1,1-dicarboxamide [12G]” the same measures were 73 nM and 325 nM.
In the case of “N-(3-chlorophenyl)-N-(4-((5-fluoro-4-(1-isopropyl-1H-benzo[d](1,2,3)triazol-6-yl)pyrimidin-2-yl)amino)benzyl)cyclopropane-1,1-dicarboxamide [12C]”, the IC50 with SiHa stood at 68 nM; in the assay on SKOV3, 459 nM.
With “N-(4-chloro-3-(trifluoromethyl)phenyl)-N-(4-((5-fluoro-4-(1-isopropyl-1H-benzo[d](1,2,3)triazol-6-yl)pyrimidin-2-yl)amino)benzyl)cyclopropane-1,1-dicarboxamide [12P]”, the IC50 in the assay with SiHa was determined as 231 nM; with SKOV3, 915 nM.
Regarding “N-(4-((5-fluoro-4-(1-isopropyl-1H-benzo[d](1,2,3)triazol-6-yl)pyrimidin-2-yl)amino)benzyl)-N-(4-fluorophenyl)cyclopropane-1,1-dicarboxamide [12B]”, the figures for the IC50 in the assay on SiHa and in the assay on SKOV3 were 28 nM and 199 nM, respectively.
